Source: patent US9603889B2, “IAP antagonists” (BRISTOL-MYERS SQUIBB COMPANY, priority 2012, dated 2017)
Structures can show the parent of a compound that is named as a salt.

target: XIAP BIR3 (N-His-Tb-BIR3(241-356, XIAP)) (Homo sapiens (Human), UniProt P98170); type: binding; conditions: 130 nM N-His-Tb-BIR3(241-356, XIAP), 1.4 nM fluoresceinated modified SMAC peptide, 60 minutes room temperature; read-out: XIAP BIR3 FPA IC50
Sequence (P98170 241-356): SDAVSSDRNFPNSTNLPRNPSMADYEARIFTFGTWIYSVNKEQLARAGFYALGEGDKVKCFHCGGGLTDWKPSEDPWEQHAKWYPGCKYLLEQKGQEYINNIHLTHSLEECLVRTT

Compound	IC50 [nM]
CCOc1ccccc1[C@@H](C)N(Cc1ccc(C(=O)N[C@H]2C[C@@H](C(=O)N[C@@H]3CCCc4ccccc43)N(C(=O)[C@@H](NC(=O)[C@H](C)NC)C(C)(C)C)C2)cc1)C(=O)[C@@H]1Cc2ccccc2CN1C(=O)[C@@H](NC(=O)[C@H](C)NC)C(C)(C)C [Example 29, (S)-2-((S)-3,3-Dimethyl-2-((S)-2-(methylamino)propanamido)butanoyl)-N-(4-(((3S,5S)-1-((S)-3,3-dimethyl-2-((S)-2-(methyl-amino)propanamido)butanoyl)-5-(((R)-1,2,3,4-tetra-hydronaphthalen-1-yl)carbamoyl)pyrrolidin-3-yl)carbamoyl)benzyl)-N-((R)-1-(2-ethoxyphenyl)ethyl)-1,2,3,4-tetrahydro-isoquinoline-3-carboxamide]	160
CN[C@@H](C)C(=O)N[C@H](C(=O)N1Cc2ccccc2C[C@H]1CN(C(=O)c1ccc(C(=O)N[C@H]2C[C@@H](C(=O)N[C@@H]3CCCc4ccccc43)N(C(=O)[C@@H](NC(=O)[C@H](C)NC)C(C)(C)C)C2)cc1)[C@H](C)Cc1ccc2ccccc2c1)C(C)(C)C [Example 30, N^1-(((S)-2-((S)-3,3-Dimethyl-2-((S)-2-(methylamino)propanamido)butanoyl)-1,2,3,4-tetrahydro-isoquinolin-3-yl)methyl)-N^4-((3S,5S)-1-((S)-3,3-dimethyl-2-((S)-2-(methylamino)propanamido)butanoyl)-5-(((R)-1,2,3,4-tetrahydro-naphthalen-1-yl)carbamoyl)pyrrolidin-3-yl)-N^1-((R)-1-(naphthalen-2-yl)propan-2-yl) terephthalamide]	270
CN[C@@H](C)C(=O)N[C@H](C(=O)N1Cc2ccccc2C[C@H]1CN(C(=O)c1ccc(C(=O)N[C@H]2C[C@@H](C(=O)N[C@@H]3CCCc4ccccc43)N(C(=O)[C@@H](NC(=O)[C@H](C)NC)C(C)(C)C)C2)cc1)[C@H](C)c1ccc2ccccc2c1)C(C)(C)C [Example 31, N^1-(((S)-2-((S)-3,3-Dimethyl-2-((S)-2-(methylamino)propanamido)butanoyl)-1,2,3,4-tetrahydro-isoquinolin-3-yl)methyl)-N^4-((3S,5S)-1-((S)-3,3-dimethyl-2-((S)-2-(methyl-amino)propanamido)butanoyl)-5-(((R)-1,2,3,4-tetrahydro-naphthalen-1-yl)carbamoyl)pyrrolidin-3-yl)-N^1-((R)-1-(naphthalen-2-yl)ethyl) terephthalamide]	250
CN[C@@H](C)C(=O)N[C@H](C(=O)N1Cc2ccccc2C[C@H]1CN(CCc1cccc2ccccc12)C(=O)c1ccc(C(=O)N[C@H]2C[C@@H](C(=O)N[C@@H]3CCCc4ccccc43)N(C(=O)[C@@H](NC(=O)[C@H](C)NC)C(C)(C)C)C2)cc1)C(C)(C)C [Example 33, N^1-(((S)-2-((S)-3,3-Dimethyl-2-((S)-2-(methylamino)propanamido)butanoyl)-1,2,3,4-tetrahydro-isoquinolin-3-yl)methyl)-N^4-((3S,5S)-1-((S)-3,3-dimethyl-2-((S)-2-(methylamino)propanamido)butanoyl)-5-(((R)-1,2,3,4-tetrahydro-naphthalen-1-yl)carbamoyl)pyrrolidin-3-yl)-N^1-(2-(naphthalen-1-yl)ethyl) terephthalamide]	120
CN[C@@H](C)C(=O)N[C@H](C(=O)N1Cc2ccccc2C[C@H]1CN(Cc1cccc2ccccc12)C(=O)c1ccc(C(=O)N[C@H]2C[C@@H](C(=O)N[C@@H]3CCCc4ccccc43)N(C(=O)[C@@H](NC(=O)[C@H](C)NC)C(C)(C)C)C2)cc1)C(C)(C)C [Example 34, N^1-(((S)-2-((S)-3,3-Dimethyl-2-((S)-2-(methylamino)propanamido)butanoyl)-1,2,3,4-tetrahydro-isoquinolin-3-yl)methyl)-N^4-((3S,5S)-1-((S)-3,3-dimethyl-2-((S)-2-(methylamino)propanamido)butanoyl)-5-(((R)-1,2,3,4-tetrahydro-naphthalen-1-yl)carbamoyl)pyrrolidin-3-yl)-N^1-(naphthalen-1-ylmethyl) terephthalamide]	160
CN[C@@H](C)C(=O)N[C@H](C(=O)N1Cc2ccccc2C[C@H]1CN(Cc1cccc(C)c1C)C(=O)c1ccc(C(=O)Nc2ccc3c(c2)CN(C(=O)[C@@H](NC(=O)[C@H](C)NC)C(C)(C)C)[C@H](C(=O)N[C@@H]2CCCc4ccccc42)C3)cc1)C(C)(C)C [Example 35, N^1-(((S)-2-((S)-3,3-Dimethyl-2-((S)-2-(methylamino)propanamido)butanoyl)-1,2,3,4-tetra-hydroisoquinolin-3-yl)methyl)-N^4-((S)-2-((S)-3,3-dimethyl-2-((S)-2-(methylamino)propanamido)butanoyl)-3-(((R)-1,2,3,4-tetrahydro-naphthalen-1-yl)carbamoyl)-1,2,3,4-tetra-hydroisoquinolin-7-yl)-N^1-(2,3-dimethylbenzyl) terephthalamide]	230
CN[C@@H](C)C(=O)N[C@H](C(=O)N1Cc2ccccc2C[C@H]1CN(Cc1cccc(C)c1C)C(=O)c1ccc(C(=O)N[C@H]2C[C@@H](C(=O)N[C@@H]3CCCc4ccccc43)N(C(=O)[C@@H](NC(=O)[C@H](C)NC)C(C)(C)C)C2)cc1)C(C)(C)C [Example 36, N^1-(((S)-2-((S)-3,3-Dimethyl-2-((S)-2-(methylamino)propanamido)butanoyl)-1,2,3,4-tetrahydro-isoquinolin-3-yl)methyl)-N^4-((3S,5S)-1-((S)-3,3-dimethyl-2-((S)-2-(methylamino)propanamido)butanoyl)-5-(((R)-1,2,3,4-tetrahydro-naphthalen-1-yl)carbamoyl)pyrrolidin-3-yl)-N^1-(2,3-dimethyl-benzyl) terephthalamide]	90
CN[C@@H](C)C(=O)N[C@H](C(=O)N1Cc2ccccc2C[C@H]1CN(C(=O)c1ccc(C(=O)N[C@H]2C[C@@H](C(=O)N[C@@H]3CCCc4ccccc43)N(C(=O)[C@@H](NC(=O)[C@H](C)NC)C(C)(C)C)C2)cc1)[C@H](C)c1ccccc1F)C(C)(C)C [Example 37, N^1-(((S)-2-((S)-3,3-Dimethyl-2-((S)-2-(methylamino)propanamido)butanoyl)-1,2,3,4-tetrahydro-isoquinolin-3-yl)methyl)-N^4-((3S,5S)-1-((S)-3,3-dimethyl-2-((S)-2-(methylamino)propanamido)butanoyl)-5-(((R)-1,2,3,4-tetrahydro-naphthalen-1-yl)carbamoyl)pyrrolidin-3-yl)-N^1-((R)-1-(2-fluorophenyl)ethyl) terephthalamide]	230
CN[C@@H](C)C(=O)N[C@H](C(=O)N1Cc2ccccc2CC1C(=O)N(CC1(C(=O)NC2C[C@@H](C(=O)NC3CCCc4ccccc43)N(C(=O)[C@@H](NC(=O)[C@H](C)NC)C(C)(C)C)C2)CC1)[C@@H](COC)c1ccccc1)C(C)(C)C (stereo partly drawn) [Example 38, (S)-2-((S)-3,3-Dimethyl-2-((S)-2-(methylamino)propanamido)butanoyl)-N-((1-(((3S,5S)-1-((S)-3,3-dimethyl-2-((S)-2-(methylamino)propanamido)butanoyl)-5-(((R)-1,2,3,4-tetrahydronaphthalen-1-yl)carbamoyl)pyrrolidin-3-yl)carbamoyl)cyclopropyl)methyl)-N-((S)-2-methoxy-1-phenylethyl)-1,2,3,4-tetrahydroisoquinoline-3-carboxamide, 2 TFA]	60
CN[C@@H](C)C(=O)N[C@H](C(=O)N1C[C@@H](NC(=O)CCCN(C(=O)[C@@H]2Cc3ccccc3CN2C(=O)[C@@H](NC(=O)[C@H](C)NC)C(C)(C)C)[C@H](C)c2ccccc2F)C[C@H]1C(=O)N[C@@H]1CCCc2ccccc21)C(C)(C)C [Example 41, (S)-2-((S)-3,3-Dimethyl-2-((S)-2-(methylamino)propanamido)butanoyl)-N-(4-(((3S,5S)-1-((S)-3,3-dimethyl-2-((S)-2-(methylamino)propanamido)butanoyl)-5-(((R)-1,2,3,4-tetrahydronaphthalen-1-yl)carbamoyl)pyrrolidin-3-yl)amino)-4-oxobutyl)-N-((R)-1-(2-fluorophenyl)ethyl)-1,2,3,4-tetrahydroisoquinoline-3-carboxamide]	60
CN[C@@H](C)C(=O)N[C@H](C(=O)N1CC(NC(=O)C2CC2CN(C(=O)[C@@H]2Cc3ccccc3CN2C(=O)[C@@H](NC(=O)[C@H](C)NC)C(C)(C)C)[C@H](C)c2ccccc2F)C[C@H]1C(=O)NC1CCCc2ccccc21)C(C)(C)C (stereo partly drawn) [Example 42, (3S)-2-((S)-3,3-Dimethyl-2-((S)-2-(methylamino)propanamido)butanoyl)-N-((2-(((3S,5S)-1-((S)-3,3-dimethyl-2-((S)-2-(methylamino)propanamido)butanoyl)-5-(((R)-1,2,3,4-tetrahydronaphthalen-1-yl)carbamoyl)pyrrolidin-3-yl)carbamoyl)cyclopropyl)methyl)-N-((R)-1-(2-fluorophenyl)ethyl)-1,2,3,4-tetrahydroisoquinoline-3-carboxamide]	70
CN[C@@H](C)C(=O)N[C@H](C(=O)N1C[C@@H](NC(=O)C2(CN(C(=O)[C@@H]3Cc4ccccc4CN3C(=O)[C@@H](NC(=O)[C@H](C)NC)C(C)(C)C)[C@H](C)c3cccc(F)c3F)CC2)C[C@H]1C(=O)N[C@@H]1CCCc2ccccc21)C(C)(C)C [Example 43, (S)-N-((R)-1-(2,3-Difluorophenyl)ethyl)-2-((S)-3,3-dimethyl-2-((S)-2-(methylamino)propanamido)butanoyl)-N-((1-(((3S,5S)-1-((S)-3,3-dimethyl-2-((S)-2-(methylamino)propanamido)butanoyl)-5-(((R)-1,2,3,4-tetrahydronaphthalen-1-yl)carbamoyl)pyrrolidin-3-yl)carbamoyl)cyclopropyl)methyl)-1,2,3,4-tetrahydroisoquinoline-3-carboxamide]	180
